Data as given in patent publication US5474988A, “5-phenylpyrrolo-1,4-benzoxazine and 5-phenylpyrrolo-1,4-benzothiazine compounds, process and intermediates for their production and pharmaceutical compositions containing them” (Kali-Chemie Pharma GmbH, priority 1993, dated 1995).

Columns and labels:
[1] = system: P.A.F.-induced aggregation of blood platelets; experiment: anti-P.A.F. action in vitro (P.A.F.-induced platelet aggregation); type: cell-based; details: Oryctolagus cuniculus, 10^-5 mole/liter, read-out: Anti-P.A.F. activity in vitro, % inhibition of the P.A.F.-induced aggregation of blood platelets from rabbit blood
Description: 3. Determination of the anti-P.A.F. action in vitro.
P.A.F. (=Platelet Activating Factor=Platelet Aggregation Factor) is a phospholipid mediator which has a multiplicity of actions. The activation of blood platelet aggregation results in the induction of long-lasting bronchoconstrictions and hyperreactivity of the respiratory passages.
In this test, the effect of the test substances on platelet aggregation induced by addition of P.A.F. in a platelet suspension obtained from rabbit blood was investigated according to the method described by Mikashima et al. (Jap. J. Pharmacol. 44 (1987) 387-391).
A suspension of platelets obtained from rabbit blood was used which contains 4×10^9 platelets/ml in a modified Tyrode buffer solution (=Tyrode solution with the addition of 1.3 mM/l of CaCl2 and 2.5 g/l of gelatine) adjusted to pH 7.4. Tyrode solution is an aqueous solution containing, per liter, 136.9 mmole of NaCl, 2.68 mmole of KCl, 2.31 mmole of CaCl2, 1.0 mmole of MgCl2, 11.9 mmole of NaHCO3, 1.45 mmole of NaH2 PO4 and 5.55 mmole of glucose. The platelets were concentrated from 10 ml blood samples of three rabbits (New Zealand hybrids, body weight 3-4 kg) in each case. To accomplish this, the blood samples were treated with ethylenediaminetetraacetic acid and washed according to the method of Artley et al. (Brit. J. Haematol. 19 (1970), 7-17). A platelet-rich plasma was first separated by centrifugation (20 minutes at 400×g). The platelets were separated from the plasma by repeated centrifugation for 15 minutes at 1400×g.After the centrifugation, the blood platelets remaining in the sediment were resuspended in a Tyrode buffer solution (but without calcium). 0.4 mmole of lysine acetylsalicylate was then added, and the blood platelets were sedimented again after 15 minutes. The sediment was resuspended in the aforementioned modified Tyrode buffer solution, and the number of platelets in the suspension obtained was adjusted to the desired content.
A 40×10^-9 molar P.A.F. solution was employed as a reagent. This solution was prepared from a 1.8×10^-3 molar stock solution in chloroform. To do this, a 10 μl sample of the stock solution was evaporated to dryness and dissolved again in 180 μl of the modified Tyrode buffer solution, to which 0.25% of lipid-free bovine serum albumin had been added. 10^-5 molar working solutions were then prepared from this and stored frozen. Samples of these solutions were appropriately diluted for tests.
In order to carry out the test, 50 μl of the blood platelet suspension and 10 μl of a 40×10^-5 molar solution of the compound to be investigated were added to […] of the modified Tyrode buffer solution with stirring (1000 rpm) in an aggregation tube provided with a small magnetic stirrer. This corresponded to a final test substance concentration of 10^-5 mole/l. After a preincubation time of 90 seconds, 10 μl of the P.A.F. preparation were added. For 4-5 minutes, the aggregation occurring in the aggregation tube was measured by means of a computerized aggregometer.
The aggregation occurring in the test tubes containing only the platelet suspension is rated as 0%. The aggregation occurring in the test tubes containing platelet suspension and P.A.F. preparation, in which a P.A.F.-induced increase in platelet aggregation takes place, is rated as 100%. The aggregation still occurring after addition of the test substances is measured, and from this the inhibition of the P.A.F.-inducedincrease in aggregation which takes place is calculated in %.

5-lipoxygenase = experiment: inhibition of 5-lipoxygenase activity in polymorphonuclear rat leucocytes (LTB4 formation); type: cell-based; details: 10^-5 mol/l; 22° C.
Description: 4. In vitro determination of 5-lipoxygenase inhibition. 4a. In vitro determination of inhibition of 5-lipoxygenase activity in polymorphonuclear rat leucocytes. Arachidonic acid contained in cell membranes is released after activiation of the polymorphonuclear leucocytes (=PMN). During the course of this, under the action of the enzyme 5-lipoxygenase (=5-LO) arachidonic acid metabolites are synthesized which can be converted to leucotriene B4 (=LTB4) by LTA4 hydrolase. LTB4 is a principal metabolite of the arachidonic acid metabolism taking place on activation of the enzyme 5-LO by the inflammatory stimulus in the cell membrane. In in vitro systems, this metabolite is secreted from PMNs. […] To accomplish this, the content of LTB4 in a culture medium of rat peritoneal PMNs was determined after stimulation by calcimycin (=calcium-ionophore A23187) such as described by […] et al., Can. J. Physiol. Pharmacol. 67 (1989), 17. A cell suspension containing peritoneal PMNs of male Sprague-Dawley rats (body weight 200 to 250 g) was obtained in a known manner as follows: 6 ml of a solution containing 27.9 g/l of sodium thioglycolate were injected i.p. into the animals in order to induce the PMN invasion due to this inflammatory stimulus. After 22 hours, the animals were sacrificed by means of lethal ether anaesthesia. 20 ml of a Hank's salt solution (=Hank's Balanced Salt Solution=HBSS), but without Ca^++ and Mg^++ ions and with 0.2% by weight of sodium citrate, were then injected into the abdominal cavity. The suspension of accumulated cells was removed from the abdominal cavity and the cells were separated by centrifugation (10 minutes at 400×g). The cells were purified by repeated centrifugation in the presence of Ficoll-Paque®, (=metrizoic acid preparation, […], manufacturer Pharmacia), then washed twice with HBSS containing Ca^++ and Mg^++ ions and resuspended in HBSS containing Ca^ ++ and Mg^++ ions and buffered with 10 mM HEPES (=hydroxyethylpiperazinoethanesulfonic acid). In order to carry out the tests, samples of 0.7 ml of the PMN suspension (=0.5×10^6 cells) in each case were incubated for 15 minutes at 22° C. in plastic tubes containing 10 μM of the test substance in dimethylformamide or, as a control experiment, only containing dimethylformamide. The LTB4 synthesis was initiated in the samples by addition of calcimycin (final concentration 5 μm), and the samples were incubated for 10 minutes at 22° C. Only solvent was added to blank control samples. After 10 minutes, the reaction was terminated by addition of 0.3 ml of cold methanol. The samples were kept for 1 hour at 4° C. and then centrifuged (5 minutes at 10,000×g). The supernatant liquid was investigated to determine its LTB4 content by means of reverse phase high-pressure liquid chromatography (=reverse phase HPLC). […] The LTB4 was identified by comparison with authentic standard solutions eluting at the same time and determined at a wavelength of 270 nm. The LTB4 contents are determined from comparison with calibrated standard solutions, and from this the inhibitory activity of the test substances was calculated in % inhibition of the LTB4 synthesis in comparison with the control samples containing no test substance.

Structure (SMILES)	inhibition at 10 µM [1]	In vitro inhibitory activity on LTB4 formation in rat PMNs stimulated by calcium ionophore A23187 (5-lipoxygenase)
COc1ccc(-c2c(C)c3cccc4c3n2CC(CCN2CCN(c3cc(C)ccn3)CC2)O4)cc1 (stereo not drawn) [Example 1, 2,3-dihydro-5-(4-methoxyphenyl)-6-methyl-2-[2-(4-(4-methylpyridin-2-yl)piperazin-1-yl)ethyl]pyrrolo[1,2,3-de]-1,4-benzoxazine]	80%	
Cc1ccnc(N2CCN(CCC3Cn4c(-c5ccc(O)cc5)c(C)c5cccc(c54)O3)CC2)c1 (stereo not drawn) [Example 2, 2,3-Dihydro-5-(4-hydroxyphenyl)-6-methyl-2-[2-(4-(4-methylpyridin-2-yl)piperazin-1-yl)ethyl]pyrrolo[1,2,3-de]-1,4-benzoxazine]	97%	89%
COc1ccc(-c2c(C)c3cccc4c3n2CC(CCC(=O)N2CCN(c3cc(C)ccn3)CC2)O4)cc1 (stereo not drawn) [Example 6, 2,3-Dihydro-5-(4-methoxyphenyl)-6-methyl-2-[3-(4-(4-methylpyridin-2-yl)piperazin-1-yl)-3-oxopropyl]pyrrolo[1,2,3-de]-1,4-benzoxazine]	100%	
Cc1ccnc(N2CCN(CC3Cn4c(-c5ccc(O)cc5)c(C)c5cccc(c54)O3)CC2)c1 (stereo not drawn) [Example 14]	100%	90%
Cc1c(-c2ccc(O)cc2)n2c3c(cccc13)OC(CCN1CCN(c3ccc(F)cc3)CC1)C2 (stereo not drawn) [Example 24]		73%
Cc1cccnc1N1CCN(C(=O)CCC2Cn3c(-c4ccc(O)cc4)c(C)c4cccc(c43)O2)CC1 (stereo not drawn) [Example 37]	48%	100%
Cc1ccnc(N2CCN(CCC3Cn4c(-c5cc(C)c(O)c(C)c5)c(C)c5c(Cl)ccc(c54)O3)CC2)c1 (stereo not drawn) [Example 48]	69%	
COc1ccc(-c2c(C)c3c(F)ccc4c3n2CC(CCN2CCN(c3cc(C)ccn3)CC2)O4)cc1 (stereo not drawn) [Example 51]	65%	
COc1ccc(-c2c(C)c3cccc4c3n2CC(CCN2CCN(c3cc(C)ccn3)CC2)O4)cc1O (stereo not drawn) [Example 52]		53%
Cc1ccc(N2CCN(CCCC3Cn4c(-c5ccc(O)cc5)c(C)c5cccc(c54)O3)CC2)nc1 (stereo not drawn) [Example 55]		63%
Cc1c(-c2ccc(O)cc2)n2c3c(cccc13)OC(CCCN1CCN(c3ccccn3)CC1)C2 (stereo not drawn) [Example 56]		76%
Cc1cccc(N2CCN(C(=O)CCC3Cn4c(-c5ccc(O)cc5)c(C)c5cccc(c54)O3)CC2)n1 (stereo not drawn) [Example 57]		85%
Cc1cccc(N2CCN(CCCC3Cn4c(-c5ccc(O)cc5)c(C)c5cccc(c54)O3)CC2)n1 (stereo not drawn) [Example 58]		54%
Cc1ccnc(N2CCN(CCCCC3Cn4c(-c5cc(C)c(O)c(C)c5)c(C)c5cccc(c54)S3)CC2)c1 (stereo not drawn) [Example 63]	80%	
COc1ccc2c3c1c(C)c(-c1ccc(O)cc1)n3CC(CCC(=O)N1CCN(c3cc(C)ccn3)CC1)O2 (stereo not drawn) [Example 68]	96%	90%
Cc1ccnc(N2CCN(CCC3Cn4c(-c5ccc(O)cc5)c(C)c5c(C)cc(C)c(c54)O3)CC2)c1 (stereo not drawn) [Example 70]	93%	68%
